Experimental data from US11464749B2, “Bismuth-thiol compositions and methods of use” (Microbion Corporation, priority 2018, dated 2022).
Converted amounts (≈) assume the structure as drawn. “And” between values parts separate entries of the source, which are not always exact repeats. Identical values can stand only once. Like-named read-outs stand apart in the source and are kept apart here.

How the values were obtained:
[1] = tested on: Pseudomonas aeruginosa strain PA01; experiment: Bacterial killing curves with and without CF patient sputum
B. cepacia = experiment: FIC checkerboard assay; format: cell-based
B. cenocepacia = experiment: FIC checkerboard assay; format: cell-based; details: for FICB: FIC of Meropenem in combination with BisEDT; for FICB / MICB: per checkerboard row; for MICB: MIC of Meropenem in combination with BisEDT
Escherichia coli = experiment: Broth microdilution MIC (Example 12)
Klebsiella pneumoniae [2] = experiment: Broth microdilution MIC (Example 12)
Pseudomonas aeruginosa [3] = experiment: Broth microdilution MIC (Example 12)
Acinetobacter baumannii [4] = experiment: Broth microdilution MIC (Example 12)
Klebsiella pneumoniae [5] = experiment: Broth microdilution MIC (Example 11)
Enterobacter cloacae = experiment: Broth microdilution MIC (Example 11); details: ATCCBAA2468
Pseudomonas aeruginosa [6] = experiment: Broth microdilution MIC (Example 11); details: Pseudomonas aeruginosa
Acinetobacter baumannii [7] = experiment: Broth microdilution MIC (Example 11); details: Acinetobacter baumannii
[8] = tested on: Staphylococcus aureus (MRSA); experiment: Broth microdilution MIC (Example 11)
E. faecalis = experiment: Broth microdilution MIC (Example 11); details: Enterococcus faecalis, VRE, VRE Lev^R Cip^R Ery^R
S. pneumoniae = experiment: Broth microdilution MIC (Example 11); details: Streptococcus pneumoniae
S. pyogenes = experiment: Broth microdilution MIC (Example 11); details: Streptococcus pyogenes
S. agalactiae = experiment: Broth microdilution MIC (Example 11); details: Streptococcus agalactiae

## C1C[S][Bi]([S]CC[S][Bi]2[S]CC[S]2)[S]1 [BisEDT, bismuth-1,2-ethanedithiol]
[1]; 0.1 μg/mL
  bactericidal activity against PA01: not bactericidal
[1]; 10% CF patient sputum
  effect of CF patient sputum on bactericidal activity: partially inhibited

## C[C@@H](O)[C@H]1C(=O)N2C(C(=O)O)=C(S[C@@H]3CN[C@H](C(=O)N(C)C)C3)[C@H](C)[C@H]12 [MEM]
B. cepacia; during FIC testing, B. cepacia isolate 0546
  MIC: 4 µg/mL
B. cepacia; during FIC testing, B. cepacia isolate 1793
  MIC: 4 µg/mL
B. cenocepacia; during FIC testing, B. cenocepacia isolate 0548 (CIP-R)
  MIC: 4 µg/mL
B. cenocepacia; during FIC testing, B. cenocepacia isolate 0813 (CIP-I)
  MIC: 2 µg/mL
Escherichia coli; E. coli ATCC 35218, ESBL
  MIC: ≤0.008 µg/mL
Escherichia coli; E. coli ATCC BAA-2471, NDM
  MIC: >8 µg/mL
Escherichia coli; E. coli CDC 114, ESBL/KPC
  MIC: 2 µg/mL (≈ 5.22 µM)
Escherichia coli; E. coli CDC 118, ESBL/NDM
  MIC: 0.06 µg/mL (≈ 0.156 µM)
Escherichia coli; E. coli CDC 435, NDM
  MIC: >8 µg/mL
Escherichia coli; E. coli CDC 451, KPC
  MIC: 1 µg/mL (≈ 2.61 µM)
Escherichia coli; E. coli CDC 503, ESBL/NDM
  MIC: 8 µg/mL (≈ 20.9 µM)
Escherichia coli; E. coli MMX 5745, KPC
  MIC: 2 µg/mL (≈ 5.22 µM)
Escherichia coli; E. coli MMX 5755, ESBL
  MIC: 0.015 µg/mL (≈ 0.0391 µM)
Escherichia coli; E. coli MMX 5756, ESBL
  MIC: ≤0.008 µg/mL
Escherichia coli; E. coli MMX 5758, ESBL
  MIC: ≤0.008 µg/mL
Klebsiella pneumoniae [2]; K. pneumoniae ATCC BAA-1705, ESBL/KPC
  MIC: 8 µg/mL (≈ 20.9 µM)
Klebsiella pneumoniae [2]; K. pneumoniae CDC 112, KPC
  MIC: >8 µg/mL
Klebsiella pneumoniae [2]; K. pneumoniae CDC 113, ESBL/KPC
  MIC: >8 µg/mL
Klebsiella pneumoniae [2]; K. pneumoniae CDC 115, ESBL/KPC
  MIC: >8 µg/mL
Klebsiella pneumoniae [2]; K. pneumoniae CDC 120, ESBL/KPC
  MIC: >8 µg/mL
Klebsiella pneumoniae [2]; K. pneumoniae CDC 126, ESBL/KPC
  MIC: 4 µg/mL (≈ 10.4 µM)
Klebsiella pneumoniae [2]; K. pneumoniae CDC 129, ESBL/KPC
  MIC: 8 µg/mL (≈ 20.9 µM)
Klebsiella pneumoniae [2]; K. pneumoniae CDC 135, ESBL/VIM
  MIC: 1 µg/mL (≈ 2.61 µM)
Klebsiella pneumoniae [2]; K. pneumoniae CDC 138, ESBL/NDM
  MIC: >8 µg/mL
Klebsiella pneumoniae [2]; K. pneumoniae CDC 158, ESBL/NDM/OXA
  MIC: >8 µg/mL
Klebsiella pneumoniae [2]; K. pneumoniae MMX 9029, ESBL
  MIC: 0.015 µg/mL (≈ 0.0391 µM)
Pseudomonas aeruginosa [3]; P. aeruginosa CDC 230, VIM/OXA
  MIC: >8 µg/mL
Pseudomonas aeruginosa [3]; P. aeruginosa CDC 231, KPC/OXA
  MIC: >8 µg/mL
Pseudomonas aeruginosa [3]; P. aeruginosa CDC 241, IMP/OXA
  MIC: >8 µg/mL
Pseudomonas aeruginosa [3]; P. aeruginosa CDC 246, NDM/OXA
  MIC: >8 µg/mL
Pseudomonas aeruginosa [3]; P. aeruginosa CDC 250, NDM/OXA
  MIC: >8 µg/mL
Pseudomonas aeruginosa [3]; P. aeruginosa CDC 356, KPC
  MIC: >8 µg/mL
Pseudomonas aeruginosa [3]; P. aeruginosa CDC 439, IMP
  MIC: >8 µg/mL
Pseudomonas aeruginosa [3]; P. aeruginosa CDC 444, VIM
  MIC: >8 µg/mL
Pseudomonas aeruginosa [3]; P. aeruginosa CDC 457, VIM
  MIC: >8 µg/mL
Pseudomonas aeruginosa [3]; P. aeruginosa CDC 516, KPC/AmpC
  MIC: >8 µg/mL
Pseudomonas aeruginosa [3]; P. aeruginosa CDC 518, KPC/AmpC
  MIC: >8 µg/mL
Acinetobacter baumannii [4]; A. baumannii CDC 273, ESBL/OXA
  MIC: >8 µg/mL
Acinetobacter baumannii [4]; A. baumannii CDC 274, ESBL/OXA
  MIC: >8 µg/mL
Acinetobacter baumannii [4]; A. baumannii CDC 275, ESBL/OXA
  MIC: >8 µg/mL
Acinetobacter baumannii [4]; A. baumannii CDC 277, ESBL/OXA
  MIC: >8 µg/mL
Acinetobacter baumannii [4]; A. baumannii CDC 284, ESBL/OXA
  MIC: >8 µg/mL
Acinetobacter baumannii [4]; A. baumannii CDC 307, OXA
  MIC: 8 µg/mL (≈ 20.9 µM)
Acinetobacter baumannii [4]; A. baumannii CDC 308, ESBL/OXA
  MIC: 8 µg/mL (≈ 20.9 µM)
Acinetobacter baumannii [4]; A. baumannii CDC 311, OXA
  MIC: >8 µg/mL
Acinetobacter baumannii [4]; A. baumannii CDC 312, OXA
  MIC: 4 µg/mL (≈ 10.4 µM)
Acinetobacter baumannii [4]; A. baumannii CDC 313, ESBL/OXA
  MIC: >8 µg/mL
Acinetobacter baumannii [4]; A. baumannii NCTC 13304, OXA
  MIC: >8 µg/mL

## C[C@@H](O)[C@H]1C(=O)N2C(C(=O)O)=C(S[C@@H]3CN[C@H](C(=O)N(C)C)C3)[C@H](C)[C@H]12 [Meropenem, reference compound]
B. cepacia; Burkholderia cepacia, B. cepacia 546, Meropenem alone (checkerboard with BisEDT), read-out: Drug B MIC
  MIC: 4 µg/mL
B. cepacia; Burkholderia cepacia, B. cepacia 1793, Meropenem alone (checkerboard with BisEDT), read-out: Drug B MIC
  MIC: 4 µg/mL
B. cenocepacia; B. cenocepacia 548
  FICB: 0.5 and 1
  MICB: 2 µg/mL and 4 µg/mL
B. cenocepacia; B. cenocepacia 813
  FICB: 0.5 and 1
  MICB: 1 µg/mL and 2 µg/mL
B. cenocepacia; Burkholderia cenocepacia, B. cenocepacia 548, Meropenem alone (panel with BisEDT), read-out: Drug B MIC
  MIC: 4 µg/mL
B. cenocepacia; Burkholderia cenocepacia, B. cenocepacia 813, Meropenem alone (panel with BisEDT), read-out: Drug B MIC
  MIC: 2 µg/mL
Klebsiella pneumoniae [5]; K. pneumoniae MMX 4622, KPC-2, MEM^R, CAZ^R
  MIC: > 64 µg/mL
Klebsiella pneumoniae [5]; K. pneumoniae MMX 4623, KPC-2, MEM^R, CAZ^R, GM^R
  MIC: > 64 µg/mL
Klebsiella pneumoniae [5]; K. pneumoniae MMX 4653, KPC-3, Lev^R, MEM^R, CAZ^R
  MIC: > 64 µg/mL
Klebsiella pneumoniae [5]; K. pneumoniae MMX 4683, KPC-2, Lev^R, MEM^R, CAZ^R
  MIC: 32 µg/mL (≈ 83.4 µM)
Klebsiella pneumoniae [5]; K. pneumoniae MMX 4684, ESBL, MEM^R
  MIC: 8 µg/mL (≈ 20.9 µM)
Klebsiella pneumoniae [5]; K. pneumoniae MMX 4685, ESBL, Lev^R, MEM^R, CAZ^R
  MIC: 4 µg/mL (≈ 10.4 µM)
Klebsiella pneumoniae [5]; K. pneumoniae MMX 4694, KPC-3, Lev^R, MEM^R, CAZ^R
  MIC: 32 µg/mL (≈ 83.4 µM)
Klebsiella pneumoniae [5]; K. pneumoniae MMX 5979, NDM-1, Lev^R, MEM^R, CAZ^R, Gm^R
  MIC: > 64 µg/mL
Enterobacter cloacae
  MIC: > 64 µg/mL
Pseudomonas aeruginosa [6]; ATCC27853, P. aeruginosa MMX 103 (ATCC 27853), QC
  MIC: 0.5 µg/mL (≈ 1.3 µM)
Pseudomonas aeruginosa [6]; P. aeruginosa MMX 1381, MDR, Lev^R, Cip^R, MEM^R, CAZ^R
  MIC: 16 µg/mL (≈ 41.7 µM)
Pseudomonas aeruginosa [6]; P. aeruginosa MMX 2562, MDR, Lev^R, Cip^R, MEM^R, CAZ^R
  MIC: 32 µg/mL (≈ 83.4 µM)
Pseudomonas aeruginosa [6]; P. aeruginosa MMX 3991, MDR, Lev^R, Cip^R, MEM^R, CAZ^R
  MIC: 16 µg/mL (≈ 41.7 µM)
Pseudomonas aeruginosa [6]; P. aeruginosa MMX 4654, IMP-7, Lev^R, Cip^R, MEM^R, CAZ^R
  MIC: > 64 µg/mL
Pseudomonas aeruginosa [6]; P. aeruginosa MMX 4697, VIM-2, Lev^R, Cip^R, MEM^R, CAZ^R
  MIC: 8 µg/mL (≈ 20.9 µM)
Acinetobacter baumannii [7]; A. baumannii MMX 2592, MDR, Lev^R, Cip^R, MEM^R, CAZ^R, Gm^R
  MIC: 64 µg/mL (≈ 167 µM)
Acinetobacter baumannii [7]; A. baumannii MMX 2593, MDR, Lev^R, Cip^R, MEM^R, CAZ^R, Gm^R
  MIC: 64 µg/mL (≈ 167 µM)
Acinetobacter baumannii [7]; A. baumannii MMX 3372, MDR, Cip^R, MEM^I, CAZ^I
  MIC: 4 µg/mL (≈ 10.4 µM)
Acinetobacter baumannii [7]; A. baumannii MMX 3373, Sensitive
  MIC: 0.5 µg/mL (≈ 1.3 µM)
Acinetobacter baumannii [7]; NCTC13304, A. baumannii MMX 4651 (NCTC 13304), MDR, OXA-27, Lev^R, Cip^R, MEM^R, CAZ^R, Gm^I
  MIC: 64 µg/mL (≈ 167 µM)
[8]; ATCC29213|MRSA|MSSA, S. aureus MMX 101 (ATCC 29213), QC, MSSA
  MIC: 0.06 µg/mL (≈ 0.156 µM)
[8]; MRSA, S. aureus MMX 5373, MRSA Lev^R Cip^R CC^R Ery^R Ox^R
  MIC: 32 µg/mL (≈ 83.4 µM)
[8]; MRSA, S. aureus MMX 6311, MRSA Lev^R Cip^R CC^R Ery^R Ox^R
  MIC: 8 µg/mL (≈ 20.9 µM)
[8]; MRSA, S. aureus MMX 9203, MRSA Lev^R Cip^R Ery^R Ox^R
  MIC: 4 µg/mL (≈ 10.4 µM)
[8]; MRSA, S. aureus MMX 9204, MRSA Lev^R Cip^R Ery^R Ox^R
  MIC: 4 µg/mL (≈ 10.4 µM)
[8]; MRSA, S. aureus MMX 9205, MRSA Lev^R Cip^R CC^R Ery^R Ox^R
  MIC: 64 µg/mL (≈ 167 µM)
E. faecalis; E. faecalis MMX 8960
  MIC: 8 µg/mL (≈ 20.9 µM)
E. faecalis; E. faecalis MMX 8961
  MIC: 8 µg/mL (≈ 20.9 µM)
E. faecalis; E. faecalis MMX 8962
  MIC: 2 µg/mL (≈ 5.22 µM)
S. pneumoniae; ATCC49619, S. pneumoniae MMX 6837 (ATCC 49619), QC
  MIC: 0.06 µg/mL (≈ 0.156 µM)
S. pneumoniae; S. pneumoniae MMX 880, Lev^R SXT^R CC^R Ery^R Pen^R
  MIC: 0.5 µg/mL (≈ 1.3 µM)
S. pneumoniae; S. pneumoniae MMX 937, Mem^R SXT^R CC^R Ery^R Pen^R
  MIC: 1 µg/mL (≈ 2.61 µM)
S. pneumoniae; S. pneumoniae MMX 3959, CC^R Ery^R
  MIC: 0.03 µg/mL (≈ 0.0782 µM)
S. pneumoniae; S. pneumoniae MMX 5440, Mem^R SXT^R CC^R Ery^R Pen^R
  MIC: 1 µg/mL (≈ 2.61 µM)
S. pneumoniae; S. pneumoniae MMX 5445, Mem^R SXT^R CC^R Ery^R Pen^R
  MIC: 1 µg/mL (≈ 2.61 µM)
S. pneumoniae; S. pneumoniae MMX 8133, Mem^R SXT^R CC^R Ery^R Pen^R
  MIC: 1 µg/mL (≈ 2.61 µM)
S. pyogenes; S. pyogenes MMX 3068, Ery^R
  MIC: ≤ 0.008 µg/mL
S. pyogenes; S. pyogenes MMX 3820, ERY^R CLI^R
  MIC: ≤ 0.008 µg/mL
S. pyogenes; S. pyogenes MMX 3919, ERY^R
  MIC: ≤ 0.008 µg/mL
S. pyogenes; S. pyogenes MMX 3929, ERY^R CC^R
  MIC: ≤ 0.008 µg/mL
S. pyogenes; S. pyogenes MMX 5091, ERY^R CC^R
  MIC: ≤ 0.008 µg/mL
S. agalactiae; S. agalactiae MMX 3741, ERY^R CC^R
  MIC: 0.03 µg/mL (≈ 0.0782 µM)
S. agalactiae; S. agalactiae MMX 3743, ERY^R CC^R
  MIC: 0.06 µg/mL (≈ 0.156 µM)
S. agalactiae; S. agalactiae MMX 4077, ERY^R CC^R
  MIC: 0.06 µg/mL (≈ 0.156 µM)
S. agalactiae; S. agalactiae MMX 4079, ERY^R CC^R Pen^R MEM^R
  MIC: 8 µg/mL (≈ 20.9 µM)
S. agalactiae; S. agalactiae MMX 4086, ERY^R CC^R
  MIC: 0.06 µg/mL (≈ 0.156 µM)
